Laboratory results published in PubChem BioAssay (NCI).
“And” between values parts separate entries of the source, which are not always exact repeats. Identical values can stand only once.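 Results reflect a 48-hour exposure of cells in 96-well plates to compound at five concentrations. At the GI50, growth is halved. TGI is the concentration that stops growth completely.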

Legend:
Assay in all cases: growth of human tumour cells (NCI), 48 h
BT-549 breast = test system: BT-549 breast
EKVX NSCLC = test system: EKVX NSCLC
HCT-15 colon = test system: HCT-15 colon
HT29 colon = test system: HT29 colon
MDA-MB-231 breast = test system: MDA-MB-231 breast
NCI-H226 lung = test system: NCI-H226 lung
PC-3 prostate = test system: PC-3 prostate
RPMI-8226 leukemia = test system: RPMI-8226 leukemia
SR leukemia = test system: SR leukemia
UO-31 renal = test system: UO-31 renal

| SMILES | GI50 (BT-549 breast) | TGI (BT-549 breast) | GI50 (EKVX NSCLC) | TGI (EKVX NSCLC) | GI50 (HCT-15 colon) | TGI (HCT-15 colon) [µM] | GI50 (HT29 colon) | TGI (HT29 colon) | GI50 (MDA-MB-231 breast) | TGI (MDA-MB-231 breast) | GI50 (NCI-H226 lung) | TGI (NCI-H226 lung) | GI50 (PC-3 prostate) | TGI (PC-3 prostate) | GI50 (RPMI-8226 leukemia) | TGI (RPMI-8226 leukemia) | GI50 (SR leukemia) | TGI (SR leukemia) | GI50 (UO-31 renal) | TGI (UO-31 renal) |
| --- | --- | --- | --- | --- | --- | --- | --- | --- | --- | --- | --- | --- | --- | --- | --- | --- | --- | --- | --- | --- |
| COC(=O)c1c2c(c(C)[n+]([O-])c1C)C(=O)C=C(NCc1ccc(Br)cc1)C2=O | 1.15 µM | 2.53 µM | 0.763 µM | 2.37 µM | 0.167 µM | 1.95 | 0.339 µM | > 100 µM | 0.3 µM | 3.82 µM | 1.3 µM | 2.98 µM | 0.428 µM | 3.37 µM | 1.47 µM | 5.1 µM | 1.7 µM | > 100 µM | 1.08 µM | 2.44 µM |
| COc1cc2c(cc1OCc1ccccc1)N=C[C@@H]1C[C@@H](F)CN1C2=O |  | 0.785 µM | 0.73 µM | 2.29 µM | 0.282 µM | 0.893 | 0.322 µM | > 42.8 µM | 0.232 µM | 0.553 µM | 0.197 µM | 0.447 µM |  | 1.02 µM | < 0.0501 µM |  | 0.29 µM | 1.46 µM |  | 0.483 µM |
| Cc1ccc2nc3sc(=O)sc3nc2c1 |  | 28.7 µM |  | 27.2 µM |  | 31.3 |  | 31.2 µM |  | 32.1 µM |  | 27.9 µM |  | 27.3 µM |  | 59.1 µM |  | 80.2 µM |  | 28.9 µM |
| O=S(=O)(CC(O)C(Cl)(Cl)Cl)NNc1ccccc1 (stereo unspecified) |  | > 100 µM |  | > 100 µM |  | > 100 |  | > 100 µM |  | > 100 µM |  | > 100 µM |  | > 100 µM |  | > 100 µM |  | > 100 µM |  |  |
| N#Cc1ccc(N2Cc3cc(Cl)ccc3OC3=C2C(=O)N(Cc2ccc(F)cc2)C3=O)cc1 | 0.174 µM | 0.356 µM | 1.08 µM | 4.24 µM | 0.543 µM | 1.43 | 0.587 µM | 1.35 µM | 0.636 µM | 1.51 µM | 1.62 µM | 3.75 µM | 0.8 µM | 2.5 µM | 0.252 µM | 0.814 µM | 0.275 µM | 1.12 µM | 0.436 µM | 0.868 µM |
| CCOC(=O)c1c(C(F)(F)F)n([O-])c2ccc(Cl)cc2[n+]1=O | 2.02 µM | 4.95 µM | 2.05 µM | 5.14 µM | 1.52 µM | 3.16 | 1.9 µM | 3.83 µM | 2.01 µM | 4.45 µM | 2.13 µM | 5.78 µM | 1.45 µM | 3.02 µM | 2.07 µM | 5.13 µM | 1.55 µM | 4.35 µM | 1.48 µM | 2.93 µM |
| Cc1ccc(-c2c3c(N)nc(-c4ccncc4)nc3nc3c2c(C)nn3-c2ccccc2)cc1 | 7.38 µM | 17.9 µM |  |  | 13.6 µM | > 37.5 | 11.5 µM | > 37.5 µM | 4.51 µM | 13.4 µM | 14 µM | > 37.5 µM | 32.3 µM | > 37.5 µM | 18.6 µM | > 37.5 µM | 7.09 µM | 23.8 µM | > 37.5 µM | > 37.5 µM |
| Cc1cc(Br)c2nsnc2c1[N+](=O)[O-] | 3.95 µM | 12 µM | 1.76 µM | 5.73 µM | 4.28 µM | 18.4 | 2.04 µM | 4.31 µM | 5.01 µM | 15.6 µM | 7.13 µM | 19.2 µM | 4.49 µM | 15.8 µM | 0.666 µM | 9.55 µM | 0.706 µM | 3.23 µM | 2.05 µM | 8.23 µM |
| O=C(O)c1ccccc1-c1ccccc1C(=O)Nc1ccc2c(c1)Cc1ccccc1-2 |  | 69.4 µM |  | 54.8 µM |  | 56 |  | 70.1 µM |  | > 100 µM |  | > 100 µM |  | > 100 µM |  | 70.4 µM |  | 65.1 µM |  | > 100 µM |
| Cc1cc(NS(=O)(=O)c2ccc(NC(=O)COc3ccc(-c4cc5ccccc5[nH]4)cc3)cc2)no1 | 2.12 µM | 5.97 µM | 2.32 µM | 8.45 µM | 2.32 µM | 7.35 | 1.73 µM | 3.44 µM | 1.66 µM | 4.37 µM | 2.14 µM | 9.88 µM | 1.94 µM | 6.91 µM | 2.87 µM | > 100 µM | 1.67 µM | > 100 µM | 1.41 µM | 3.76 µM |
| [CH3][Sn]([CH3])([CH3])[O]C(=O)C(O)c1ccccc1 (stereo unspecified) | 17.9 µM | > 100 µM | 5.36 µM | 55.7 µM | 3.57 µM | 19.1 | 3.45 µM | 31.6 µM | 39.2 µM | > 100 µM | 16.4 µM | 94 µM | 2.4 µM | > 100 µM | 3.38 µM | > 44.2 µM | 20.7 µM | > 100 µM | 4.16 µM | 31.5 µM |
| CCCCCCCCn1ccc2cc(NC(=O)Cn3cc(CN4CCC(C)CC4)nn3)ccc21 | 1.53 µM | 3.01 µM | 1.67 µM | 3.66 µM | 1.61 µM | 3.15 | 1.73 µM | 3.32 µM | 1.71 µM | 3.24 µM | 1.75 µM | 3.83 µM | 1.73 µM | 3.68 µM | 2.06 µM | 4.82 µM | 1.9 µM | 5.24 µM | 1.44 µM | 2.74 µM |
| O=C1c2ccccc2C(=O)c2c(NCCNCCO)ccc(NCCNCCO)c21 | 2.98 µM and 7.28 µM and 6.25 µM | 14.9 µM and 20.7 µM and 21.7 µM | 1.97 µM and 3.65 µM | 10.4 µM and 26.3 µM | 10.1 µM and 14.8 µM and 11.2 µM | > 100 | 1.32 µM and 2.3 µM and 1.64 µM | 7.42 µM and 12.1 µM and 5.1 µM | 1.56 µM and 1.63 µM and 1.52 µM | 5.85 µM and 6.54 µM and 4.47 µM | 0.232 µM and 0.281 µM and 0.47 µM | 2.24 µM and 3.35 µM and 5.4 µM | 2.27 µM and 2.34 µM and 1.67 µM | 17.8 µM and 13.4 µM and 7.54 µM | 1.49 µM and 3.37 µM and 1.8 µM | 12.2 µM and 33 µM and 10.9 µM | 1.49 µM and 0.492 µM and 0.267 µM | 13.2 µM and 36.8 µM | 5.36 µM and 1.58 µM and 2.79 µM | 38.1 µM and 27.7 µM and 36.9 µM |
| Cc1ccc(-n2nnc3c(sc4ccccc43)c2=O)cc1 | > 100 µM | > 100 µM |  |  | > 100 µM | > 100 | 3.59 µM | > 100 µM | 4.04 µM | > 100 µM | 9.55 µM | > 100 µM | 7.73 µM | > 100 µM | 24 µM | > 100 µM | > 100 µM | > 100 µM | 2.24 µM | 7.75 µM |
